The assay can be described thus: Effective concentration for activation of RNase L.
Compound `Nc1ncnc2c1ncn2C[C@H](OP(=O)(O)OC[C@H]1O[C@@H](n2cnc3c(N)ncnc32)[C@H](OP(=O)(O)OC[C@H]2O[C@@H](n3cnc4c(N)ncnc43)[C@H](O)[C@@H]2O)[C@@H]1O)[C@H](O)CO[PH](=O)O[C@@H]1[C@H](O)[C@@H](COP(=O)(O)O)O[C@H]1n1cnc2c(N)ncnc21` (stereo partly drawn) came in with an EC50 of 9 nM.

For `Nc1ncnc2c1ncn2C[C@H](OP(=O)(O)OC[C@H]1O[C@@H](n2cnc3c(N)ncnc32)[C@H](O)[C@@H]1O)[C@H](O)COP(=O)(O)O[C@@H]1[C@H](O)[C@@H](CO[PH](=O)O[C@@H]2[C@H](O)[C@@H](COP(=O)(O)O)O[C@H]2n2cnc3c(N)ncnc32)O[C@H]1n1cnc2c(N)ncnc21` (stereo partly drawn), the half-maximal effective concentration (EC50) stood at 1.7 nM.

With `Nc1ncnc2c1ncn2[C@@H]1O[C@H](COP(=O)(O)O[C@@H]2[C@H](O)[C@@H](COP(=O)(O)O[C@@H]3[C@H](O)[C@@H](COP(=O)(O)O[C@@H]4[C@H](O)[C@@H](COP(=O)(O)O)O[C@H]4n4cnc5c(N)ncnc54)O[C@H]3n3cnc4c(N)ncnc43)O[C@H]2n2cnc3c(N)ncnc32)[C@@H](O)[C@H]1O`, the concentration giving a half-maximal response (EC50) stood at 1 nM.

The values above are taken from ChEMBL document CHEMBL1137177, “Synthesis of 2',5'-oligoadenylate analogs containing an adenine acyclonucleoside and their ability to activate human RNase L” (Bioorg Med Chem Lett, 2004).
